Data published in patent publication US20250179167A1, “IL-6 INHIBITOR AS TREATMENT FOR NEPHROPATHY” (YALE UNIVERSITY, priority 2022, published 2025).

What was measured:
Format in all cases: in vivo, mouse
diabetic CD-1 mice [1] = assay: Plasma cytokine array (Luminex) in diabetic CD-1 mice with and without Wnti treatment
Description: Plasma cytokines and chemokines were measured in diabetic CD-1 mice with and without Wnti treatment by using a cytokine array analysis (Luminex). n=5 biologically independent mice/group. Data are mean±SEM. Student's-test (unpaired two-tailed) was used for analysis of statistical significance. Significance—*p<0.05. In one experiment, male mice were randomized to one of 4 groups sixteen weeks after induction of diabetes: (i) untreated, (ii) fenofibrate (100 mg/kg), (iii) simvastatin (40 mg/kg), or (iv) Wnt inhibitor (LGK974; 5 mg/kg). In each case, mice were treated for 4 weeks and compared to untreated diabetic CD-1 mice. In another experiment, male diabetic CD-1 mice were randomized into one of 3 groups: (i) untreated (vehicle), (ii) etomoxir (20 mg/kg) or (iii) C75 (15 mg/kg); in each case mice were treated (IP) three times/week for a total 4 weeks.

[2] = test system: isolated kidney ECs of diabetic CD-1 mice; assay: Fatty acid oxidation ([14CO2] release) in isolated kidney endothelial cells
Description: (FIG. 31B) Fatty acid oxidation, as represented by [^14CO2]released. [^14C]palmitate was used as substrate and CPM counts were normalized to protein. In both cases, endothelial cells isolated from n=5 biologically independent mice/group were analyzed in triplicate. Data are mean±SEM. One-way Anova with Tukey multiple comparison post hoc test was used to calculate statistical significance. Significance—*p<0.05, **p<0.01, ***p<0.001. Fatty Acid Oxidation. Cultured isolated kidney endothelial cells were incubated with medium containing 0.75 mmol/L palmitate (conjugated to 2% free fatty acid-free BSA/[^14C]palmitate at 2 μCi/mL) for 2 h. One mL of the culture medium was transferred to a sealable tube, the cap of which housed a Whatman filter paper disc. ^14CO2 trapped in the media was then released by acidification of media using 60% perchloric acid. Radioactivity that had become adsorbed onto the filter discs was then quantified by liquid scintillation counting.

diabetic CD-1 mice [3] = assay: Wnt inhibitor (LGK974) treatment in diabetic CD-1 mice, renal histology, GR and β-catenin
Description: FIG. 24A-24J show inhibition of Wnt signaling abolished the fibrogenic phenotype in mice. (FIG. 24A) Immunohistochemical analysis of -catenin expression in the kidneys of control and diabetic CD-1 and C57BL/6 mice. n=8 biologically independent mice/group combined from two independent experiments were evaluated. Scale bar 50 μm. Representative images are shown; original magnification 200×. (FIG. 24B) Relative mRNA expression determined by qRT-PCR of Axin2, Tcf and fibronectin, in kidneys of control and diabetic CD-1 and C57BL/6 mice. n=6 biologically independent mice/group combined from two experiments were evaluated. Expression was normalized to the internal control 18S. (FIG. 24C) Schematic diagram representing the treatment protocol of Wnt inhibitor (LGK974; 5 mg/kg body weight) in diabetic CD-1 mice and (FIG. 24D) in UUO mice. (FIG. 24E) Masson trichrome and Sirius red staining in the kidneys of diabetic and Wnt inhibitor-treated diabetic CD-1 mice. Representative images (original magnification 300×) are shown. Relative area of fibrosis (%) and relative collagen deposition (%) were measured using the ImageJ program. n=8 biologically independent mice/group combined from two experiments were evaluated. Scale bar 50 μm. (FIG. 24F) Masson trichrome and Sirius red staining in the kidneys of UUO and Wnt inhibitor-treated UUO mice. Representative images (original magnification 300×) are shown. Relative area of fibrosis (%) and relative collagen deposition (%) were measured using the ImageJ program. n=8 biologically independent mice/group combined from two experiments were evaluated. Scale bar 50 μm. (FIGS. 24G-24H) GR protein levels in CD31-positive cells were analyzed by immunofluorescence in the kidneys of Wnti-treated diabetic mice and Wnti-treated UUO mice. FITC-labeled GR, rhodamine-labeled CD31 and DAPI were used. Merged images and representative pictures are shown; original magnification 300×. n=7 biologically independent mice/group combined from four experiments were evaluated. Scale bar 50 μm. (FIGS. 24I-24J) Immunohistochemical analysis of active -catenin expression in Wnti-treated diabetic mice and Wnti-treated UUO mice. n=7 biologically independent mice/group combined from three experiments were evaluated. Scale bar 30 μm. Data are mean SEM. In all panels, one-way Anova with Tukey multiple comparison post hoc test was used to calculate statistical significance. Significance—*p<0.05, **p<0.01, ***p<0.001.
A single IP dose of 200 mg/kg STZ was used to induce diabetes in CD-1 mice.
In one experiment, male mice were randomized to one of 4 groups sixteen weeks after induction of diabetes: (i) untreated, (ii) fenofibrate (100 mg/kg), (iii) simvastatin (40 mg/kg), or (iv) Wnt inhibitor (LGK974; 5 mg/kg). In each case, mice were treated for 4 weeks and compared to untreated diabetic CD-1 mice. In another experiment, male diabetic CD-1 mice were randomized into one of 3 groups: (i) untreated (vehicle), (ii) etomoxir (20 mg/kg) or (iii) C75 (15 mg/kg); in each case mice were treated (IP) three times/week for a total 4 weeks.
Morphological Evaluation. A point-counting method was utilized to evaluate the relative area of the mesangial matrix. The inventors analyzed PAS-stained glomeruli from each mouse using a digital microscope screen grid containing 540 (27×20) points. Masson's trichrome-stained images were evaluated by ImageJ software, and the fibrotic areas were estimated.
Sirius red staining. Deparaffinized sections were incubated with picrosirius red solution for 1 hour at room temperature. The slides were washed twice with acetic acid solution for 30 seconds per wash. The slides were then dehydrated in absolute alcohol three times, cleared in xylene, and mounted with a synthetic resin. Sirius red staining was analyzed using ImageJ software, and fibrotic areas were quantified.
Immunohistochemistry. […]

db/db mice = assay: Wnt inhibitor (LGK-974) treatment in db/db mice; conditions: 5 mg/kg body weight orally by gavage
Description: (FIG. 38A) Postprandial blood glucose measurements in the Wnt inhibitor treatments in db/db mice and untreated control db/db mice. LGK-974 (Wnt inhibitor) was treated at 5 mg/kg body weight dose orally by gavage. (FIG. 38B) GTT analysis in the Wnt inhibitor treatments in db/db mice and untreated control db/db mice. N=6 were analyzed in each group. (FIG. 38C) Area under curve (AUC) in the Wnt inhibitor treatments in db/db mice and untreated control db/db mice. N=6 were analyzed in each group. (FIG. 38D) Physiological parameters such as body weight, epididymal fat, kidney weight, liver weight and heart weight in the Wnt inhibitor treatments in db/db mice and untreated control db/db mice. N=6 were analyzed in each group. (FIG. 38E) MTS and Sirius red staining analysis in the Wnt inhibitor treatments in db/db mice and untreated control db/db mice. Representative pictures of 30× are shown. N=6 were analyzed in each group. Relative area fibrosis (RAF) and relative collagen deposition (RCD) were quantified using Image J software program. (FIG. 38F) MTS and Sirius red staining analysis in the heart sections in the Wnt inhibitor treatments in db/db mice and untreated control db/db mice. Representative pictures of 20× are shown. N=6 were analyzed in each group. […] N=6 were analyzed in each group. […]

ECs from CD-1 mice = assay: Fatty acid uptake ([14C]palmitate uptake) in isolated kidney endothelial cells
Description: (FIG. 31A) Fatty acid uptake was measured as [^14C]palmitate uptake. […] [^14C]palmitate was used as substrate and CPM counts were normalized to protein. In both cases, endothelial cells isolated from n=5 biologically independent mice/group were analyzed in triplicate. Data are mean±SEM. One-way Anova with Tukey multiple comparison post hoc test was used to calculate statistical significance. Significance—*p<0.05, **p<0.01, ***p<0.001. Fatty acid uptake. Cultured isolated kidney endothelial cells were incubated with medium containing 2 μCi [^14C]-palmitate. [^14C]-palmitate uptake was measured by liquid scintillation counting.

SMILES: Cc1cc(-c2ncc(CC(=O)Nc3ccc(-c4cnccn4)cn3)cc2C)ccn1 [LGK974]
- plasma CCL4 level (diabetic CD-1 mice [1]): significantly suppressed
- plasma CCL5 level (diabetic CD-1 mice [1]): increasing
- plasma G-CSF level (diabetic CD-1 mice [1]): significantly suppressed
- plasma IL-1β level (diabetic CD-1 mice [1]): significantly suppressed
- plasma IL-6 level (diabetic CD-1 mice [1]): significantly suppressed
- plasma IL-10 level (diabetic CD-1 mice [1]): significantly suppressed
- plasma MCP-1 level (diabetic CD-1 mice [1]): significantly suppressed
- plasma TNFα level (diabetic CD-1 mice [1]): significantly suppressed
- level of FAO ([14CO2] release) [2]: able to restore the level of FAO
- ECM deposition (diabetic CD-1 mice [3]; 5 mg/kg): greatly diminished
- collagen accumulation (diabetic CD-1 mice [3]; 5 mg/kg): greatly diminished
- glomerulosclerosis (diabetic CD-1 mice [3]; 5 mg/kg): greatly diminished
- relative area of fibrosis (diabetic CD-1 mice [3]; 5 mg/kg): greatly diminished
- level of β-catenin (diabetic CD-1 mice [3]; kidney immunohistochemistry): suppressed the level of β-catenin
- endothelial GR (diabetic CD-1 mice [3]; kidney, GR in CD31-positive cells): substantially restored endothelial GR
- fibrogenic phenotype (db/db mice): abolishes fibrogenic phenotype
- FA uptake ([14C]palmitate uptake) (ECs from CD-1 mice): suppressed FA uptake
